Measurements as given in patent US6034246A, “2-arylbenzazole compounds” (Cancer Research Campaign Technology Limited, priority 1995, dated 2000).

Key:
MOR/P = assay: in vitro inhibition of growth of human lung cancer cell line MOR/P (Table 1); assay type: cell-based; conditions: MOR/P (parental line)
Source text: (§1) Tables 1 to 4 at the end of the present description show in vitro test results obtained in various sets of experiments for the cytotoxic activity of several of the benzazole compounds concerned, including also for reference results for the compound CJM 126 and comparative results for compound DF129, when tested against a range of tumor cell lines which includes ovarian, lung and certain colon and renal cancer cells from the National Cancer Institute (USA) collection. As usual the results are expressed in terms of IS50 values (concentration or dosage required to reduce cell growth or proliferation by 50%) calculated from dose-effect curves plotted for cultures of the cells in question.
(§2) In carrying out the in vitro studies, the cytotoxicity assays may be carried out by a method corresponding substantially to the following example:
(§3) Cells were maintained in a continuous logarithmic culture in Dublecco's medium supplemented with 10% fetal calf serum and penicillin (100 IU/ml) and streptomycin ([…]). The cells were mildly trypsinized for passage and for use in assays. On day zero, 100 μl of trypsinized tumor cells (1×10^4 /ml) were plated in the wells of 96-well flat-bottom microtiter plates. The plates were incubated for 2 days at 37° C. and 5% CO2 in air to allow the cells to adhere and resume exponential growth prior to the addition of drugs.
(§4) On day two 50 μl of the highest drug concentration was added to the wells of column 12 and from there serially diluted 3-fold to column 1 by serial transfer of 50 μl using an 8-channel micropipette. The final volume of column 1 was adjusted to 100 μl. No additions were made to the wells of rows A and B, which served as controls. The plates were further incubated for 5 days at 37° C. and 5% CO2 in air. Each compound was tested in duplicate.
(§5) On day 7 the test was terminated by the addition of 100 μl saline containing 0.002% w/v propidium iodide (Sigma), 0.3% drawing ink (Staedtler "Marsmatic 745"--Trade Mark) and 0.5% Triton X-100. The plates were kept at 4° C. overnight before reading on an inverted microscope equipped with an automated scanning stage. Fluorescence intensity was measured in arbitrary units by a photomultiplier. An HP-87 computer controlled the movement of the stage and also collected and processed the data from the multiplier.
(§6) For each compound tested a dose-response curve was obtained and the IC50 value (the drug concentration at 50% inhibition of cell growth) was calculated.

CH1 = assay: in vitro activity against human ovarian cell line CH1 (Table 2); assay type: cell-based; conditions: Homo sapiens
Source text: (§7) As usual the results are expressed in terms of IS50 values (concentration or dosage required to reduce cell growth or proliferation by 50%) calculated from dose-effect curves plotted for cultures of the cells in question.
as §2, §3, §4
(§8) The plates were kept at 4° C. overnight before reading on an inverted microscope equipped with an automated scanning stage. Fluorescence intensity was measured in arbitrary units by a photomultiplier. An HP-87 computer controlled the movement of the stage and also collected and processed the data from the multiplier.

Colon HCC-2998 = assay: in vitro inhibitory activity against human colon cell line HCC-2998 (Table 3); assay type: cell-based
Source text: as §1
(§9) In carrying out the in vitro studies, the cytotoxicity assays may be carried out by a method corresponding substantially to the following example: […]
as §5, with “An HP-87 computer controlled the movement of the stage and also collected and processed the data from the multiplier.” left out

A2780-cisR = assay: in vitro activity against human ovarian cell line A2780-cisR (Table 2); assay type: cell-based; conditions: for IC50: Homo sapiens, A2780cisR, A2780-cisR (platinum-resistant); for activity against A2780-cisR compared to the parental line A2780: words, Table 2
Source text: as §7, §2, §3, §4, §8

MOR/R = assay: in vitro inhibition of growth of human lung cancer cell line MOR/R (Table 1); assay type: cell-based; conditions: MOR/R (multidrug resistant line)
Source text: as §1, §2, §3, §4, §5, §6

MOR/CPR = assay: in vitro inhibition of growth of human lung cancer cell line MOR/CPR (Table 1); assay type: cell-based; conditions: for IC50: Homo sapiens, MOR/CPR (cisplatin resistant line); for activity against MOR/CPR relative to MOR/P and MOR/R: words, Table 1
Source text: as §1, §2, §3, §4, §5, §6

MDA 468 = assay: in vitro inhibitory activity against human breast tumour cell line MDA 468 (Table 4); assay type: cell-based; conditions: initial seeding density 2.5 × 10^2 cells/well
Source text: as §1, §2, §3, §4, §5, §6
(§10) *Initial seeding density 2.5 × 10^2 cells/well

IGR-OV1 = assay: in vitro activity against human ovarian cell line IGR-OV1 (Table 2); assay type: cell-based; conditions: IGROV-1
Source text: as §1, §9
as §5, with “An HP-87 computer controlled the movement of the stage and also collected and processed the data from the multiplier.” left out

L23/R = assay: in vitro inhibition of growth of human lung cancer cell line L23/R (Table 1); assay type: cell-based
Source text: as §1, §2, §3, §4, §5, §6

L88 = assay: in vitro inhibition of growth of human lung cancer cell line L88 (Table 1); assay type: cell-based
Source text: as §1, §2, §3
as §4, with “The plates were further incubated for 5 days at 37° C. and 5% CO2 in air. Each compound was tested in duplicate.” left out
as §5, with “An HP-87 computer controlled the movement of the stage and also collected and processed the data from the multiplier.” left out

Colon SW-620 = assay: in vitro inhibitory activity against human colon cell line SW-620 (Table 3); assay type: cell-based
Source text: as §1, §9
as §5, with “An HP-87 computer controlled the movement of the stage and also collected and processed the data from the multiplier.” left out

A2780 = assay: in vitro activity against human ovarian cell line A2780 (Table 2); assay type: cell-based; conditions: Homo sapiens; A2780 (parental line)
Source text: as §7, §2, §3, §4, §8

OVCAR-8 = assay: in vitro activity against human ovarian cell line OVCAR-8 (Table 2); assay type: cell-based
Source text: as §1, §9
as §5, with “An HP-87 computer controlled the movement of the stage and also collected and processed the data from the multiplier.” left out

Renal ACHN = assay: in vitro inhibitory activity against human renal cell line ACHN (Table 3); assay type: cell-based
Source text: as §1, §9
as §5, with “An HP-87 computer controlled the movement of the stage and also collected and processed the data from the multiplier.” left out

[1] = system: human breast cancer cell lines; assay: in vitro inhibition of human breast cancer cell lines; assay type: cell-based; conditions: words, Table 4
Source text: as §1, §2, §3, §4, §5, §6

LX4 = assay: in vitro inhibition of growth of human lung cancer cell line LX4 (Table 1); assay type: cell-based
Source text: as §1, §2, §3, §4, §5, §6

MCF-7 = assay: in vivo antitumor test, human breast carcinoma MCF-7 xenotransplanted in nude mice; conditions: for evaluation / RTV, relative tumor volume (T/C %): qd 12, 19, 26; for RTV, relative tumor volume (T/C %): marked * significant versus control
Protocol: In one typical set of experiments, four human breast carcinomas xenotransplanted into female Ncr: nu/nu (Taconic, Germantown, U.S.A.) or male Bom: NMRI-nu/nu mice (Bomholtgaard, Ry, Denmark) were used for the evaluation of antitumor activity. Mice weighing 20-25 g at the start of experiments were held under sterile conditions at 24-26° C., 50% relative humidity and 12 hours light-dark rhythm in laminar flow shelves. The animals received autoclaved food and bedding; the drinking water was filtered and acidified (pH4.0).
The following breast carcinoma cell lines were used: BO; MCF-7 (NCI, U.S.A.); MT-1 and MT-3. The tumors BO and MCF-7 are ER^+ models: the carcinomas MT-1 and MT-3 are ER^- ones. Tumors were transplanted subcutaneously (s.c.) as pieces (2×2 mm) into the left flank of 5-8 nude mice/experimental group. Drug treatment was initiated when the tumors reached a diameter of 4-5 mm. Compounds were solubized with Tween 80 (maximum 10% of final volume) and suspended in saline. Suspensions were preparted freshly for each drug administration and injected in a volume of 0.2 mL/20 g body weight employing a once-weekly schedule (x3). Tumor size was measured twice weekly with a caliper. Median tumor volume/group was related to the first treatment day and expressed as Relative Tumor Volume (RTV). For the estimation of toxicity, body weight was determined twice weekly and the mean percentage body weight change (BCC) was calculated. In one experiment blood was obtained from the retroorbital venous plexus of mice and blood cells were determined with a Coulter counter (Model T41).
Some of the in vivo test results are shown in Tables 5 and 6 at the end of the present description, and in FIG. 1 of the accompanying drawing which illustrates the results for measurements of in vivo activity of 2-(4'-amino-3'-methylphenyl) benzothiazole (DF203) against MCF7 in nude mice administered on days 12, 19 and 26.

Renal TK-10 = assay: in vitro inhibitory activity against human renal cell line TK-10 (Table 3); assay type: cell-based
Source text: as §1, §9
as §5, with “An HP-87 computer controlled the movement of the stage and also collected and processed the data from the multiplier.” left out

SK-OV-3 = assay: in vitro activity against human ovarian cell line SK-OV-3 (Table 2); assay type: cell-based
Source text: as §1, §9
as §5, with “An HP-87 computer controlled the movement of the stage and also collected and processed the data from the multiplier.” left out

MCF-7wt = assay: in vitro inhibitory activity against human breast tumour cell line MCF-7wt (Table 4); assay type: cell-based; conditions: initial seeding density 2.5 × 10^2 cells/well
Source text: as §1, §2, §3, §4, §5, §6, §10

[2] = MCF-7, optimum dose 200 mg/Kg/inj i.p.
[3] = MCF-7, optimum dose 12.5 mg/Kg/inj i.p.

Row | SMILES | IC50 (MOR/P) | IC50 (CH1) | IC50 (Colon HCC-2998) | IC50 (A2780-cisR) | activity against A2780-cisR compared to the parental line A2780 (A2780-cisR) | IC50 (MOR/R) | IC50 (MOR/CPR) | activity against MOR/CPR relative to MOR/P and MOR/R (MOR/CPR) | IC50 (MDA 468) | IC50 (IGR-OV1) | IC50 (L23/R) | IC50 (L88) | IC50 (Colon SW-620) | IC50 (A2780) | IC50 (OVCAR-8) | IC50 (Renal ACHN) | potency against breast cancer cells relative to CJM 126 [1] | IC50 (LX4) | IC50 (Renal TK-10) | IC50 (SK-OV-3) | further results
1 | Nc1ccc(-c2nc3ccccc3s2)cc1I [DF129, 2-(4'-amino-3'-iodophenyl)benzothiazole] | 0.3 µM | 30 µM | < 1 µM | 41 µM | increased activity | 0.1 µM | 0.025 µM | more active against the MOR/CPR line than against the two other lines | < 0.001 µM | < 0.1 µM | > 10 µM | 0.05 µM | ~100 µM | > 100 µM | > 100 µM | > 100 µM | more potent than even the compound CJM 126 | > 10 µM | < 1 µM | > 100 µM | evaluation (MCF-7; [2]): (+) (T/C % ≥ 51%); RTV, relative tumor volume (T/C %) (MCF-7; [2]): 68%; IC50 (MCF-7wt): < 0.001 µM
2 | Cc1cc(-c2nc3ccccc3s2)ccc1N [DF203, 2-(4'-amino-3'-methylphenyl)benzothiazole] | 0.1 µM | 19 µM | < 1 µM | 18 µM | increased activity | 0.07 µM | 0.04 µM | more active against the MOR/CPR line than against the two other lines | < 0.001 µM | < 0.1 µM | > 10 µM | 6 µM | > 100 µM | > 100 µM | > 100 µM | ~100 µM | more potent than even the compound CJM 126 | > 10 µM | < 1 µM | > 100 µM | evaluation (MCF-7; [3]): ++ (T/C = 21-35%); RTV, relative tumor volume (T/C %) (MCF-7; [3]): 31%; tumor status of surviving animal (MCF-7; top dose 25 mg/Kg): tumor free; IC50 (MCF-7wt): < 0.001 µM
